These results are taken from patent US9315493B2, “Phenylpyridine derivative and drug containing same” (KOWA COMPANY, LTD., priority 2011, dated 2016).

pEC50: −log10 of the molar value.

One assay concerns the target human PPARγ2 (Homo sapiens (Human), UniProt P37231). Kind of assay: PPARγ activation effect, Gal4-PPARγ2 LBD luciferase transfection assay in COS7 cells. Type of assay: cell-based. To be noted: Gal4-human PPARγ2 LBD chimera, luciferase reporter; for pEC50: 16 hours, rosiglitazone = 100%. As for the experimental part:
The agonistic activity of the compounds of the invention on PPARγ was measured based on the transfection assay using COS7 cells (DS Pharma Biomedical Co., Ltd., Osaka, Japan), which are the cell line derived from the kidney of the African green monkey. COS7 cells were cultured under 5% CO2 concentration, and DMEM medium containing 10% fetal bovine serum, glutamic acid, and antibiotics was used as a medium.
As an expression vector, a chimera in which DNA binding domain of Gal4, which is a yeast transcription factor, and ligand binding domain of human PPARγ2 are fused, i.e., a fused product between the amino acids 1 to 147 of Gal4 transcription factor and the amino acids 182 to 505 of human PPARγ2, was used. Furthermore, as a reporter vector, a firefly luciferase containing five copies of Gal4 recognition sequence in the promoter region was used. Plasmid transfection to the cells was performed according to a method which uses jetPEI (trade name, manufactured by Funakoshi Co., Ltd., Tokyo, Japan). Furthermore, β-galactosidase expression vector was employed as an internal standard.
After the transfection into the cells, the medium was replaced with a DMEM medium (containing 1% serum) added with the test compound, and the cells were further cultured for 16 hours. After that, the luciferase activity and β-galactosidase activity in the cell lysis solution were measured.
Meanwhile, for the present test, dimethylsulfoxide (DMSO) was used for dissolution and dilution of the test compounds, and during the cell treatment, the DMSO concentration in DMEM medium (containing 1% serum) was adjusted to 0.1%. As a positive compound, rosiglitazone (trade name, manufactured by ALEXIS Corporation, Switzerland) was used. The percentage (%) of the luciferase activity of the each test compound (1 to 30 μmol/L) was calculated when the luciferase activity of rosiglitazone (3 to 10 μmol/L) is 100% and the luciferase activity in the absence of the test compound is 0%. The 50% effective concentration of the test compound (EC50, 50% effect concentration) was calculated by using SAS Preclinical Package Ver 5.0 (trade name, manufactured by SAS institute Japan Co., Tokyo, Japan), which is a statistical analysis program.
For orientation: Reporter assays use an easily measured gene product as a stand-in for the process of interest.

Assay [1] deals with angiotensin II type 1 receptor (Oryctolagus cuniculus (Rabbit), UniProt P34976). The experiment in a line: Angiotensin II antagonistic activity in isolated rabbit blood vessels (angiotensin II-induced contraction of thoracic aorta ring). To be noted: test compound 0.1 μM, angiotensin II 10 nM-induced contraction, read-out: Rate (%) of inhibiting angiotensin II activity at concentration of 0.1 μM.
Chain of angiotensin II type 1 receptor (P34976 whole entry): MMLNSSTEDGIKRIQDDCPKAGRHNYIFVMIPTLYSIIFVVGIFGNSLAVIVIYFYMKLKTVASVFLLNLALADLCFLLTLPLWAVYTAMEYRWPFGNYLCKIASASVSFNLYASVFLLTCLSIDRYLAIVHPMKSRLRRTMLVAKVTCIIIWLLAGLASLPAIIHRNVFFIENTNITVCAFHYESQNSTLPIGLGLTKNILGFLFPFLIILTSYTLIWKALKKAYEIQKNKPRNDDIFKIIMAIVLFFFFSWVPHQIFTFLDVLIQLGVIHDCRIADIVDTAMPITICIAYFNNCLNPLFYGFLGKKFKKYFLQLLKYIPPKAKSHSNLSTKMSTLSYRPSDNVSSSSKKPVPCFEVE
Description: By using a specimen of isolated rabbit blood vessels, antagonistic activity of the compounds of the invention against angiotensin II type 1 receptor was calculated from a dose-response curve of angiotensin II-induced blood vessel contraction. Specifically, the specimen of thoracic aorta ring of a rabbit (New Zealand White: male, 2.4 to 3.0 kg) was suspended in a rmagnus bath filled with Krebs-Henseleite buffer (composition: 118 mM NaCl, 4.7 mM KCl, 2.55 mM CaCl2, 1.18 mM MgSO4, 1.18 mM KH2PO4, 24.88 mM NaHCO3, and 11.1 mM D-glucose), and angiotensin II (10 n M)-induced contraction was obtained in the presence of each test compound (1 n mol/L to 10 μmol/L). During the measurement, the inside temperature of the magnus bath was maintained at 37° C. and the bath was continuously ventilated with a sufficient amount of mixed gas (95% O2 and 5% CO2). The angiotensin II-induced contraction was converted into a relative value (%) that is based on the angiotensin II (0.1 μM)-induced contraction in the absence of the test compound.

Chain of human PPARγ2 (P37231 182-505): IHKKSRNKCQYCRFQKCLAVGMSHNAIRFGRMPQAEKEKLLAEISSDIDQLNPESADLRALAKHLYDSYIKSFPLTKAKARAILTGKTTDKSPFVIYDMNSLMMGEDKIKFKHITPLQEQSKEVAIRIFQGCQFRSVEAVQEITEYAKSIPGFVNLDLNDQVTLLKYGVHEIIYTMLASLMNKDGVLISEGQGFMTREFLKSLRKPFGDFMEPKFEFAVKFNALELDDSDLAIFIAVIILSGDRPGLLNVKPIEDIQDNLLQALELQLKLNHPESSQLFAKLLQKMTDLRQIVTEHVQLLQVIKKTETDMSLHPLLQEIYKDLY

A word on the pEC50: it is the EC50 on a negative log10 scale, so that one unit is a factor of ten. A higher pEC50 goes with a small EC50. Turning to `CCCCCc1nc(C(C)C)n(-c2ncc(OCC)cn2)c(=O)c1Cc1ccc(-c2ccccc2-c2noc(=O)[nH]2)nc1` [Example 42, 3-{2-{5-{[1-(5-ethoxypyrimidin-2-yl)-2-isopropyl-6-oxo-4-pentyl-1,6-dihydropyrimidin-5-yl]methyl}pyridin-2-yl}phenyl}-1,2,4-oxadiazol-5(4H)-one], on human PPARγ2, the “% MAX vs Rosiglitazone (maximum activity strength relative to the maximum activity of rosiglitazone)” value is given as 53% and the negative-log EC50 (pEC50) is 6.19.
With `CCCc1nc(C2CC2)n(-c2ncc(OCC)cn2)c(=O)c1Cc1ccc(-c2ccccc2-c2noc(=O)[nH]2)nc1` [Example 41, 3-{2-{5-{[2-cyclopropyl-1-(5-ethoxypyrimidin-2-yl)-6-oxo-4-propyl-1,6-dihydropyrimidin-5-yl]methyl}pyridin-2-yl}phenyl}-1,2,4-oxadiazol-5(4H)-one], the inhibition at 0.1 µM in assay [1] came to 89.9%. Also, on human PPARγ2, the “% MAX vs Rosiglitazone (maximum activity strength relative to the maximum activity of rosiglitazone)” value came to 65% and the pEC50 is 6.25.
In the case of `CCCc1nc2c(C)cc(-c3nc4ccccc4n3C)cc2n1Cc1ccc(-c2ccccc2C(=O)O)cc1` [telmisartan, reference compound], the inhibition at 0.1 µM in assay [1] was 85.3%.
For `CCCc1nc(C(C)C)n(-c2ncc(OCC)cn2)c(=O)c1Cc1ccc(-c2ccccc2-c2noc(=O)[nH]2)nc1` [Example 40, 3-{2-{5-{[1-(5-ethoxypyrimidin-2-yl)-2-isopropyl-6-oxo-4-propyl-1,6-dihydropyrimidin-5-yl]methyl}pyridin-2-yl}phenyl}-1,2,4-oxadiazol-5(4H)-one], in assay [1], the inhibition at 0.1 µM turned out to be 68.3%. Also, on human PPARγ2, the “% MAX vs Rosiglitazone (maximum activity strength relative to the maximum activity of rosiglitazone)” value is on record as 69% and the pEC50 is 6.40.
For `CCCCCc1nc(C2CC2)n(-c2ncc(OCC)cn2)c(=O)c1Cc1ccc(-c2ccccc2-c2noc(=O)[nH]2)nc1` [Example 43, 3-{2-{5-{[2-cyclopropyl-1-(5-ethoxypyrimidin-2-yl)-6-oxo-4-pentyl-1,6-dihydropyrimidin-5-yl]methyl}pyridin-2-yl}phenyl}-1,2,4-oxadiazol-5(4H)-one], on human PPARγ2, the “% MAX vs Rosiglitazone (maximum activity strength relative to the maximum activity of rosiglitazone)” value is 42% and the pEC50 is 6.23.
